Assay [1] addresses T1, BRD4 Bromodomain 1 (BRD4 BD1) (Homo sapiens, UniProt O60885).
T1 construct: 44-168 and BRD4 BD2
Briefly: AlphaScreen binding assay, BRD4 BD1. As to conditions: His-tagged BRD4 BD1 50 nM, biotinylated H4 (1-21) K5/8/12/16 tetra-acetylated peptide 50 nM, compounds listed under IC50 range headings. The method in brief: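 An AlphaScreen competition format was used with His-BRD4 BD1 or BD2 and biotin-H4 K5/8/12/16-acetyl peptide, each at matched final levels of 50 nM (BD1) or 100 nM (BD2). Incubation in HEPES/NaCl buffer with 0.1% BSA and 0.01% Triton X-100 ran ≥1 h before IC50 determination.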
(In Alpha technology, singlet oxygen from a donor bead excites a nearby acceptor bead.)

Assay [2] has as its system acute myelocytic leukemia (AML) cell line MV4-11. Briefly: Oncology cell growth assay (3-day proliferation, CellTiter-Glo). The assay is classed as cell-based. Conditions: Homo sapiens, MV4-11, 72 h, MV4-11 cells, 3000 cells/well, compounds listed under IC50 range headings, read-out: MV411 IC50 (gIC50, inhibition of proliferation). In short, it runs like this: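 Luminescence from CellTiter-Glo served as the growth read-out after MV4-11 cells (3000/well) were cultured with compound for 72 hours. Final concentrations spanned 10 to 0.0045 μM in 3-fold steps. gIC50 values were derived by four-parameter logistic fitting relative to DMSO and cell-free controls.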
For orientation: In ATP-based viability assays light output follows the ATP content of the culture.

Take `C[C@H]1CCc2c(ccc(-c3cn[nH]c3)c2OC2CCC2)N1C(=O)C1CC1` [I-54, (S)-(5-cyclobutoxy-2-methyl-6-(1H-pyrazol-4-yl)-3,4-dihydroquinolin-1 (2H)-yl)(cyclopropyl)methanone]: the IC50 was 100 to 1000 nM in assay [1] and under 500 nM in assay [2].

`C[C@H]1CCc2c(ccc(-c3cnn(C4CCNCC4)c3)c2Oc2ccc(F)cc2F)N1C(=O)C1CC1` [I-264, (S)-cyclopropyl (5-(2,4-difluorophenoxy)-2-methyl-6-(1-(piperidin-4-yl)-1H-pyrazol-4-yl)-3,4-dihydroquinolin-1 (2H)-yl)methanone]: the IC50 in assay [1] is 100 to 1000 nM; in assay [2], under 500 nM.

Take `C[C@H]1CCc2c(ccc(-c3ccn[nH]3)c2OC2CCC2)N1C(=O)C1CC1` [I-56, (S)-(5-cyclobutoxy-2-methyl-6-(1H-pyrazol-5-yl)-3,4-dihydroquinolin-1(2H)-yl)(cyclopropyl)methanone]: the IC50 in assay [1] fell in the range of 1000 to 10000 nM; in assay [2], 500 to 1000 nM.

For `COc1cccc(Oc2c(-c3cnn(C4CCNCC4)c3)ccc3c2CC[C@H](C)N3C(C)=O)c1` [I-156, (S)-1-(5-(3-methoxyphenoxy)-2-methyl-6-(1-(piperidin-4-yl)-1H-pyrazol-4-yl)-3,4-dihydroquinolin-1(2H)-yl)ethanone], the IC50 in assay [1] is 100 to 1000 nM; in assay [2], under 500 nM.

Turning to `C[C@H]1CCc2c(ccc(-c3cnn(C4CCNCC4)c3)c2Oc2cccc(C#N)c2)N1C(=O)C1CC1` [I-202, (S)-3-(1-(cyclopropanecarbonyl)-2-methyl-6-(1-(piperidin-4-yl)-1H-pyrazol-4-yl)-1,2,3,4-tetrahydroquinolin-5-yloxy)benzonitrile], the IC50 in assay [1] is 100 to 1000 nM; in assay [2], under 500 nM.

As for `COC(=O)N1c2ccc(-c3cnn(C4CCNCC4)c3)c(Oc3cc(F)ccc3F)c2CC[C@@H]1C` [I-273, (S)-methyl 5-(2,5-difluorophenoxy)-2-methyl-6-(1-(piperidin-4-yl)-1H-pyrazol-4-yl)-3,4-dihydroquinoline-1(2H)-carboxylate], the IC50 is 100 to 1000 nM in assay [1] and under 500 nM in assay [2].

On to `C[C@H]1CCc2c(Oc3ccccc3)c(-c3cn(C)nn3)cc(F)c2N1C(=O)C1CC1` [I-321, (S)-cyclopropyl(8-fluoro-2-methyl-6-(1-methyl-1H-1,2,3-triazol-4-yl)-5-phenoxy-3,4-dihydroquinolin-1(2H)-yl)methanone], for which the IC50 in assay [1] is 100 to 1000 nM; in assay [2], under 500 nM.

For `COC(=O)N1c2ccc(-c3cnn(C4CC5CN(C)CC5C4)c3)c(Oc3ccc(F)cc3)c2CC[C@@H]1C` (stereo partly drawn) [I-250, (2S)-methyl 5-(4-fluorophenoxy)-2-methyl-6-(1-(2-methyl-octahydrocyclopenta[c]pyrrol-5-yl)-1H-pyrazol-4-yl)-3,4-dihydroquinoline-1(2H)-carboxylate], the IC50 is 100 to 1000 nM in assay [1] and under 500 nM in assay [2].

Turning to `C[C@H]1CCc2c(ccc(-c3cn(C)nn3)c2Oc2ccccc2)N1C(=O)C1CC1` [I-219, (S)-cyclopropyl(2-methyl-6-(1-methyl-1H-1,2,3-triazol-4-yl)-5-phenoxy-3,4-dihydroquinolin-1(2H)-yl)methanone], the IC50 in assay [1] is 100 to 1000 nM; in assay [2] it was under 500 nM.

In the case of `CC(=O)N1c2c(F)c(F)c(-c3cnn(C4CC4)c3)c(OC3CCC3)c2CC[C@@H]1C` [I-75, (S)-1-(5-cyclobutoxy-6-(1-cyclopropyl-1H-pyrazol-4-yl)-7,8-difluoro-2-methyl-3,4-dihydroquinolin-1 (2H)-yl)ethanone], the IC50 in assay [1] is at least 10000 nM; in assay [2], over 1000 nM.

Regarding `COc1cccc(Oc2c(-c3cnn(C4CCNCC4)c3)ccc3c2CC[C@H](C)N3C(=O)C2CC2)n1` [I-98, (S)-cyclopropyl(5-(6-methoxypyridin-2-yloxy)-2-methyl-6-(1-(piperidin-4-yl)-1H-pyrazol-4-yl)-3,4-dihydroquinolin-1(2H)-yl)methanone], the IC50 in assay [1] is 100 to 1000 nM; in assay [2] it was under 500 nM.

For `C[C@H]1CCc2c(ccc(-c3cnn(C4CS(=O)(=O)C4)c3)c2Oc2ccccc2)N1C(=O)C1CC1` [I-230, 3-[4-[(2S)-1-cyclopropanecarbonyl-2-methyl-5-phenoxy-1,2,3,4-tetrahydroquinolin-6-yl]-1H-pyrazol-1-yl]-1λ^6-thietane-1,1-dione], the figures for the IC50 in assay [1] and in assay [2] were 100 to 1000 nM and under 500 nM, respectively.

For the compound `C[C@H]1CCc2c(ccc(-n3cc(N4CCNCC4)cn3)c2Oc2ccccc2)N1C(=O)C1CC1` [I-337, (S)-cyclopropyl(2-methyl-5-phenoxy-6-(4-(piperazin-1-yl)-1H-pyrazol-1-yl)-3,4-dihydroquinolin-1(2H)-yl)methanone], the IC50 in assay [1] is 1000 to 10000 nM; in assay [2], over 1000 nM.

On to `C[C@H]1CCc2c(ccc(-c3ccn(C4CCNCC4)n3)c2OC2CCC2)N1C(=O)C1CC1` [I-305, (S)-(5-cyclobutoxy-2-methyl-6-(1-(piperidin-4-yl)-1H-pyrazol-3-yl)-3,4-dihydroquinolin-1 (2H)-yl)(cyclopropyl)methanone], for which the IC50 was 1000 to 10000 nM in assay [1] and under 500 nM in assay [2].

For the compound `CC#Cc1ccc2c(c1Oc1ccccc1)CC[C@H](C)N2C(=O)C1CC1` [I-347, (S)-cyclopropyl(2-methyl-5-phenoxy-6-(prop-1-ynyl)-3,4-dihydroquinolin-1(2H)-yl)methanone], the IC50 in assay [1] is at least 10000 nM; in assay [2], over 1000 nM.

Take `CC(=O)N1c2ccc(-c3cnn(C4CCNCC4)c3)c(Oc3cccc(C)n3)c2CC[C@@H]1C` [I-334, (S)-1-(2-methyl-5-(6-methylpyridin-2-yloxy)-6-(1-(piperidin-4-yl)-1H-pyrazol-4-yl)-3,4-dihydroquinolin-1 (2H)-yl)ethanone]: the results for the IC50 in assay [1] and in assay [2] were 1000 to 10000 nM and under 500 nM, respectively.

Turning to `C#Cc1ccc2c(c1Oc1ccccc1)CC[C@H](C)N2C(=O)OC` [I-346, (S)-methyl 6-ethynyl-2-methyl-5-phenoxy-3,4-dihydroquinoline-1(2H)-carboxylate], the IC50 in assay [1] was at least 10000 nM; in assay [2], over 1000 nM.

For `C#Cc1ccc2c(c1Oc1ccccc1)CC[C@H](C)N2C(=O)C1CC1` [I-345, (S)-cyclopropyl(6-ethynyl-2-methyl-5-phenoxy-3,4-dihydroquinolin-1(2H)-yl)methanone], the figures for the IC50 in assay [1] and in assay [2] were at least 10000 nM and over 1000 nM, respectively.

Regarding `COc1ccc(Oc2c(-c3cnn(C4CCNCC4)c3)ccc3c2CC[C@H](C)N3C(=O)C2CC2)cc1` [I-196, (S)-cyclopropyl(5-(4-methoxyphenoxy)-2-methyl-6-(1-(piperidin-4-yl)-1H-pyrazol-4-yl)-3,4-dihydroquinolin-1(2H)-yl)methanone], the figures for the IC50 in assay [1] and in assay [2] were 100 to 1000 nM and under 500 nM, respectively.

Turning to `C[C@H]1CCc2c(ccc(-n3nccn3)c2OC2CCC2)N1C(=O)C1CC1` [I-326, (S)-(5-cyclobutoxy-2-methyl-6-(2H-1,2,3-triazol-2-yl)-3,4-dihydroquinolin-1(2H)-yl)(cyclopropyl)methanone], the IC50 in assay [1] is at least 10000 nM; in assay [2], over 1000 nM.

Turning to `COC(=O)N1c2ccc(-c3cnn(C4CNC4)c3)c(Oc3ccccc3F)c2CC[C@@H]1C` [I-261, (S)-methyl 6-(1-(azetidin-3-yl)-1H-pyrazol-4-yl)-5-(2-fluorophenoxy)-2-methyl-3,4-dihydroquinoline-1(2H)-carboxylate], the IC50 in assay [1] was 100 to 1000 nM; in assay [2], under 500 nM.

As for `COC(=O)N1c2ccc(-c3cnn(C4CNC4)c3)c(Oc3ccc(F)c(F)c3)c2CC[C@@H]1C` [I-192, (S)-methyl 6-(1-(azetidin-3-yl)-1H-pyrazol-4-yl)-5-(3,4-difluorophenoxy)-2-methyl-3,4-dihydroquinoline-1(2H)-carboxylate], the IC50 in assay [1] was 100 to 1000 nM; in assay [2] it was under 500 nM.

Consider `C[C@H]1CCc2c(ccc(-c3cnn(C4CNC4)c3)c2Oc2ccccc2)N1C(=O)C1CC1` [I-175, (S)-(6-(1-(azetidin-3-yl)-1H-pyrazol-4-yl)-2-methyl-5-phenoxy-3,4-dihydroquinolin-1(2H)-yl)(cyclopropyl)methanone], for which the IC50 in assay [1] is 100 to 1000 nM; in assay [2], under 500 nM.

For the compound `C[C@H]1CCc2c(ccc(-n3nccn3)c2Oc2ccccc2)N1C(=O)C1CC1` [I-327, (S)-cyclopropyl(2-methyl-5-phenoxy-6-(2H-1,2,3-triazol-2-yl)-3,4-dihydroquinolin-1(2H)-yl)methanone], the values for the IC50 in assay [1] and in assay [2] were at least 10000 nM and over 1000 nM, respectively.

As for `COC(=O)N1c2ccc(-c3cn(C)c(N4CCNCC4)n3)c(OC3CCC3)c2CC[C@@H]1C` [I-315, (S)-methyl 5-cyclobutoxy-2-methyl-6-(1-methyl-2-(piperazin-1-yl)-1H-imidazol-4-yl)-3,4-dihydroquinoline-1(2H)-carboxylate], the IC50 in assay [1] was 100 to 1000 nM; in assay [2], under 500 nM.

In the case of `CC(=O)N1c2ccc(-c3cnn(C4CCNCC4)c3)c(Oc3ccccn3)c2CC[C@@H]1C` [I-203, (S)-1-(2-methyl-6-(1-(piperidin-4-yl)-1H-pyrazol-4-yl)-5-(pyridin-2-yloxy)-3,4-dihydroquinolin-1(2H)-yl)ethanone], the IC50 in assay [1] was 100 to 1000 nM; in assay [2], under 500 nM.

For the compound `COC(=O)N1c2ccc(-c3csc(C4(O)CCNCC4)n3)c(OC3CCC3)c2CC[C@@H]1C` [I-280, methyl (S)-5-cyclobutoxy-6-(2-(4-hydroxypiperidin-4-yl)thiazol-4-yl)-2-methyl-3,4-dihydroquinoline-1(2H)-carboxylate], the IC50 was 1000 to 10000 nM in assay [1] and under 500 nM in assay [2].

Source of the values: US10611750B2, “Tetrahydroquinoline compositions as bet bromodomain inhibitors” (FORMA Therapeutics, Inc., priority 2013, dated 2020).
